The text below walks through data of patent publication US12600727B2, “Treatment of infections of toxoplasma gondii and closely related parasites” (WASHINGTON UNIVERSITY, priority 2018, dated 2026).

Assay [1] has as its system Toxoplasma gondii tachyzoites (ME49-FLUC, type 2). The assay can be described thus: T. gondii ME49-FLUC tachyzoite growth inhibition in HFF, luciferase assay. It is filed as cell-based. The following applies: T. gondii ME49-FLUC (type 2) tachyzoites in HFF. Here is the method: Toxoplasma gondii tachyzoites (ME49-FLUC, type 2) (27) were serially passaged in human foreskin fibroblasts (HFF) cultured in complete DMEM medium (DMEM supplemented with 10% fetal bovine serum (FBS), glutamine (10 mM) and gentamycin (10 μg/mL)). For each assay described, infected monolayers were scraped, needle passed (23 ga), and parasites were separated from host cell debris using a three (3) micron pore polycarbonate filter. HeLa cells were cultured in MEM media that contained 10% FBS, 4 mM L-glutamine and 10 mM HEPES solution. Cell culture and assays were conducted using a 37° C. incubator with 5% CO2. Cell cultures were negative for mycoplasma, as determined using the e-Myco plus kit (Intron Biotechnology).
White, clear bottom 96-well assay plates were set up as described above with the following modifications. Only the inner 60 wells were used for the assay in order to reduce variability that results from evaporation during incubation. Dilution of compound stock is as described above, with all wells containing a final concentration of 0.1% DMSO. DMSO (vehicle control) and pyrimethamine (2.5 μM, positive control) were included in the outside wells of all plates as controls. Liquid handling (serial dilutions, compound dilutions, cell feeding, plate-to-plate transfers, etc.) utilized a Dual Pod Biomek FX. Luciferase assays were performed using the integrated and automated platform (Beckman Coulter). The SAMI EX software was used to design and execute the screening assay and enabled efficient and uniform assay execution across all the assay plates.

The subject of assay [2] is Neospora caninum parasites (NC-1 strain). Put plainly: N. caninum (NC-1, lac-Z) growth inhibition in HFF, β-Gal assay. It is filed as cell-based. The settings on record: 72 h. How it is done: Neospora caninum parasites (NC-1 strain) expressing a lac-Z transgene (1) were serially passaged as tachyzoites in human foreskin fibroblasts cultured in DMEM supplemented with 10% fetal bovine serum (FBS), glutamine (10 mM) and gentamycin (10 μg/mL). Mature cultures were scraped, syringe passed using a 25 g needle to release parasites, filtered through a 3 micron polycarbonate filter to remove host cell debris and counted prior to each assay. All cultures were maintained in a 37° C. incubator with 5% CO2 and were verified mycoplasma free using the e-Myco plus Mycoplasma PCR detection kit (Boca Scientific).
Compounds were prepared as 10 mM stock in 100% DMSO. Pyrimethamine (positive control) and DMSO were included as controls in all plates and all replicates. The EC50 values were determined using a 10-point dose response curve using a 2-fold dilution series from 5.0 μM to 0.01 μM across the plate. Experiments were conducted in 96-well plates containing confluent HFF cells. Each assay plate was inoculated with 1×10^3 parasites (100 μL) containing 100 μL of 2× compound and incubated for 72 h prior to preparation for the j-Gal assay as described in Seeber, F. et al., Gene 169 (1996): 39-45, hereby incorporated by reference in its entirety and particularly in relation to the β-Gal assay protocol. Briefly, culture medium was replaced, wells rinsed with 200 μL of PBS followed by incubation with 50 μL of lysis buffer (100 mM HEPES, 1 mM MgSO4, 1% Triton X-100, 5 mM DTT) for 10 min at 50° C.
EC50 values determined from 10-point dose response curve (5 μM-0.01 μM) and presented as the average of three biological replicates. Linear regression and dose response inhibition (log ([compound]) vs normalized response-variable slope) were performed with Prism 8 for Mac (Graphpad Software, Inc.) and both the fits and data are shown in FIG. 1. Values represent the average of three biological replicates each with two internal replicates and are plotted as mean±S.E.M.

The mark [3] stands for this setting: N. caninum NC-1 lac-Z, 10-point dose response 5 μM-0.01 μM, average of three biological replicates, read-out: EC50.

Each structure is given as a SMILES string. Read-outs that look alike come from different tables or passages of the source.

What is called EC50 is the concentration at which the effect is half-maximal. For `COc1ccc(NC(=O)N2CCCCN3[C@H](CN4CCN(C)CC4)[C@H](c4ccc(C#Cc5ccccc5)cc4)[C@@H]3C2)cc1` [Compound 1, (8R,9S,10S)-N-(4-methoxyphenyl)-10-((4-methylpiperazin-1-yl)methyl)-9-(4-(phenylethynyl)phenyl)-1,6-diazabicyclo[6.2.0]decane-6-carboxamide], in assay [1], the EC50 turned out to be 425 nM. As for `COc1ccc(NC(=O)N2CCCCN3[C@H](COCCC(=O)O)[C@H](c4ccc(C#Cc5ccccc5)cc4)[C@@H]3C2)cc1` [Compound 2, 3-(((8R,9R,10S)-6-((4-methoxyphenyl)carbamoyl)-9-(4-(phenylethynyl)phenyl)-1,6-diazabicyclo[6.2.0]decan-10-yl)methoxy)propanoic acid], in assay [1], a half-maximal response (EC50) required 64.3 nM. In turn, `O=C(NC1CCC1)N1CCCCN2[C@H](CO)[C@H](c3ccc(C#Cc4ccccc4)cc3)[C@@H]2C1` [Compound 3, (8R,9R,10S)-N-cyclobutyl-10-(hydroxymethyl)-9-(4-(phenylethynyl)phenyl)-1,6-diazabicyclo[6.2.0]decane-6-carboxamide] had an EC50 in assay [1] of 2580 nM.

In turn, `COc1ccc(NC(=O)N2CCCCN3[C@H](CN(C)S(C)(=O)=O)[C@H](c4ccc(C#Cc5ccccc5)cc4)[C@@H]3C2)cc1` [Compound 4, (8R,9R,10S)-N-(4-methoxyphenyl)-10-((N-methylmethylsulfonamido)methyl)-9-(4-(phenylethynyl)phenyl)-1,6-diazabicyclo[6.2.0]decane-6-carboxamide] yielded an EC50 in assay [1] of 34.8 nM. In turn, `COc1ccc(NC(=O)N2CCCCN3[C@H](CN(C)CCF)[C@H](c4ccc(C#Cc5ccccc5)cc4)[C@@H]3C2)cc1` [Compound 5, (8R,9S,10S)-10-(((2-fluoroethyl)(methyl)amino)methyl)-N-(4-methoxyphenyl)-9-(4-(phenylethynyl)phenyl)-1,6-diazabicyclo[6.2.0]decane-6-carboxamide] returned a concentration for a half-maximal effect (EC50) in assay [1] of 89.5 nM. Regarding `COc1ccc(NC(=O)N2CCCCN3[C@@H](C2)[C@@H](c2ccc(C#Cc4ccccc4)cc2)[C@@H]3CN(C)S(C)(=O)=O)cc1` [Compound 6, (8R,9R,10R)-N-(4-methoxyphenyl)-10-((N-methylmethylsulfonamido)methyl)-9-(4-(phenylethynyl)phenyl)-1,6-diazabicyclo[6.2.0]decane-6-carboxamide], the EC50 in assay [1] was determined as 40 nM; in assay [2] (setting [3]), 60 nM. Turning to `COc1ccc(NC(=O)N2CCCCN3[C@H](CO)[C@H](c4ccc(C#CC5CC5)cc4)[C@@H]3C2)cc1` [Compound 7, (8R,9R,10S)-9-(4-(cyclopropylethynyl)phenyl)-10-(hydroxymethyl)-N-(4-methoxyphenyl)-1,6-diazabicyclo[6.2.0]decane-6-carboxamide], the EC50 in assay [1] stood at 1610 nM. Take `COc1ccc(NC(=O)N2C[C@H](O)[C@H](O)CN3[C@H](CN(C)C)[C@H](c4ccc(C#Cc5ccccc5)cc4)[C@@H]3C2)cc1` [Compound 8, (3R,4S,8R,9S,10S)-10-((dimethylamino)methyl)-3,4-dihydroxy-N-(4-methoxyphenyl)-9-(4-(phenylethynyl)phenyl)-1,6-diazabicyclo[6.2.0]decane-6-carboxamide]: the figures for the EC50 in assay [1] and in assay [2] (setting [3]) were 39.3 nM and 30 nM, respectively. As to `COC[C@@H]1[C@H](c2ccc(C#Cc3ccccc3)cc2)[C@@H]2CN(C(=O)Nc3ccc(OC)cc3)CCCCN12` [Compound 9, (8R,9R,10S)-10-(methoxymethyl)-N-(4-methoxyphenyl)-9-(4-(phenylethynyl)phenyl)-1,6-diazabicyclo[6.2.0]decane-6-carboxamide], the response in assay [1] was half-maximal at 50.4 nM (EC50). Still for that read-out and setting: the same measure for `O=C(Nc1cccc(F)c1)N1CCCCN2[C@H](CO)[C@H](c3ccc(C#Cc4cccnc4)cc3)[C@@H]2C1` [Compound 10, (8R,9R,10S)-N-(3-fluorophenyl)-10-(hydroxymethyl)-9-(4-(pyridin-3-ylethynyl)phenyl)-1,6-diazabicyclo[6.2.0]decane-6-carboxamide]: 493 nM; for `COc1ccc(NC(=O)N2CCCCN3[C@H](CO)[C@H](c4ccc(C#Cc5ccccc5)cc4)[C@]3(CO)C2)cc1` [Compound 11, (8R,9S,10S)-8,10-bis(hydroxymethyl)-N-(4-methoxyphenyl)-9-(4-(phenylethynyl)phenyl)-1,6-diazabicyclo[6.2.0]decane-6-carboxamide]: 1690 nM. On the same count and under the same terms, the value for `COc1ccc(NC(=O)N2CCCCN3[C@H](CO)[C@H](c4ccc(C#Cc5ccccc5C#N)cc4)[C@@H]3C2)cc1` [Compound 12, (8R,9R,10S)-9-(4-((2-cyanophenyl)ethynyl)phenyl)-10-(hydroxymethyl)-N-(4-methoxyphenyl)-1,6-diazabicyclo[6.2.0]decane-6-carboxamide] was 213 nM. On the same count and under the same terms, the same measure for `COc1ccc(NC(=O)N2CCCCN3[C@@H](CO)[C@H](c4ccc(C#Cc5ccccn5)cc4)[C@@H]3C2)cc1` [Compound 13, (8R,9R,10R)-10-(hydroxymethyl)-N-(4-methoxyphenyl)-9-(4-(pyridin-2-ylethynyl)phenyl)-1,6-diazabicyclo[6.2.0]decane-6-carboxamide]: 646 nM. In the case of `CN(C[C@@H]1[C@H](c2ccc(C#Cc3ccccc3)cc2)[C@@H]2CN(C(=O)Nc3ccc(OC4CC4)cc3)CCCCN12)S(C)(=O)=O` [Compound 14, (8R,9R,10S)-N-(4-cyclopropoxyphenyl)-10-((N-methylmethylsulfonamido)methyl)-9-(4-(phenylethynyl)phenyl)-1,6-diazabicyclo[6.2.0]decane-6-carboxamide], the values for the EC50 in assay [1] and in assay [2] (setting [3]) were 18.5 nM and 37 nM, respectively.

For `COc1ccc(NC(=O)N2CCCCN3C[C@H](c4ccc(C#Cc5ccccc5)cc4)[C@@H]3C2)cc1` [Compound 16], the EC50 in assay [1] was 77 nM; in assay [2] (setting [3]), 193 nM. For `COc1ccc(NC(=O)N2CCCCN3[C@H](CN4CCC4)[C@H](c4ccc(C#Cc5ccccc5)cc4)[C@@H]3C2)cc1` [Compound 17, (8R,9S,10S)-10-(azetidin-1-ylmethyl)-N-(4-methoxyphenyl)-9-(4-(phenylethynyl)phenyl)-1,6-diazabicyclo[6.2.0]decane-6-carboxamide], in assay [1], the EC50 turned out to be 442 nM. On to `COc1ccc(NC(=O)N2CCCCN3[C@H](CO)[C@H](c4ccc(C#Cc5ccccc5)cc4)[C@@H]3C2)cc1` [Compound 18, (8R,9R,10S)-10-(hydroxymethyl)-N-(4-methoxyphenyl)-9-(4-(phenylethynyl)phenyl)-1,6-diazabicyclo[6.2.0]decane-6-carboxamide], for which the EC50 in assay [1] came out at 28.9 nM. On the same count and under the same terms, the same measure for `OC[C@@H]1[C@H](c2ccc(C#Cc3ccccc3)cc2)[C@@H]2CN(c3nc4ccccc4s3)CCCCN12` [Compound 19, ((8R,9R,10S)-6-(benzo[d]thiazol-2-yl)-9-(4-(phenylethynyl)phenyl)-1,6-diazabicyclo[6.2.0]decan-10-yl)methanol]: 3940 nM. Turning to `COc1ccc(NC(=O)N2CCCCCN3[C@H](CO)[C@H](c4ccc(C#Cc5ccccc5)cc4)[C@@H]3C2)cc1` [Compound 20, (9R,10R,11S)-11-(hydroxymethyl)-N-(4-methoxyphenyl)-10-(4-(phenylethynyl)phenyl)-1,7-diazabicyclo[7.2.0]undecane-7-carboxamide], the EC50 turned out to be 169 nM in assay [1] and 157 nM in assay [2] (setting [3]). On to `COc1ccc(NC(=O)N2CCCN3[C@H](CO)[C@H](c4ccc(C#Cc5ccccc5)cc4)[C@@H]3C2)cc1` [Compound 21, (7R,8R,9S)-9-(hydroxymethyl)-N-(4-methoxyphenyl)-8-(4-(phenylethynyl)phenyl)-1,5-diazabicyclo[5.2.0]nonane-5-carboxamide], for which a half-maximal effect in assay [1] (EC50) was put at 1750 nM.

`CCc1nc(N)nc(N)c1-c1ccc(Cl)cc1` [Pyrimethamine (Pyr), Pyrimethamine, reference compound]: the midpoint of the response in assay [2], the EC50, lay at 263 nM.
